Reference: US20240182415A1, “ACETAL, KETAL, AND […] OF PSILOCIN, PROCESSES FOR THE PREPARATION THEREOF, AND METHODS OF USE” (Invyxis, Inc., priority 2022, published 2024)
Read-outs that look alike come from different tables or passages of the source.

Tests used:
[1] = Single-dose oral pharmacokinetics in mice (plasma and brain); assay type: in vivo, C57BL6 mice; conditions: PO 3.0 mg/kg
Description: The single-dose pharmacokinetics of test compounds were analyzed relative to control (psilocin) in C57BL6 mice via oral (PO) administration. Test compound was dissolved in DMSO and transferred to a 15-mL tube, followed by addition of Tween-80, PEG-400, and water to final volume. The resulting formulation (0.3 mg/mL compound, in DMSO (1%), Tween-80 (5%), and PEG-400 (25%) in water (69%)) was vortexed for 2 min. and mixed by inversion.
Male C57BL6 mice (3× per compound, (at a weight ˜20 g)) received a single dose (oral) of test compound at 3.0 mg/kg. Blood samples were collected pre-dose and at 0.083, 0.25, 0.5, 1, 2, 4, 8, 24-hour post-dose to yield approximately 20 μL of pooled plasma (3× mice) per time point. Brain tissues were collected at 2- and 8-hr post-dose. Brain was flushed with saline solution using a perfusion needle through the ascending aorta of the ventricle to remove any remaining blood prior to collection. Plasma and brain homogenate samples were stored at −80° C. prior to extraction for LC-MS/MS analysis.
Samples were analyzed by LC-MS/MS to quantify the amounts of test compound and control (psilocin). The calculation of the pharmacokinetic (PK) parameters (AUCt, AUCinf, Cmax, Tmax, T1/2, and Kel) can be performed using a non-compartmental analysis (trapezoidal method).

[2] = molecular target: human serotonin 5HT2A receptor (Homo sapiens, UniProt P28223); test: 5HT2A receptor radioligand displacement assay; conditions: displacement of [3H]-ketanserin or [3H]-LSD, 5HT2A membrane from HEK293
[3] = Compound stability in fasted state simulated gastric fluid (FaSSGF); assay type: in vitro ADME; conditions: 37° C., 60 min vs T0
Description: Fasted state simulated gastric fluid (FaSSGF). FaSSGF was prepared according to the manufacturer instructions (Biorelevant, UK). Test compounds (2 μL of 200 μM solution) were added to a 96-well plate containing 198 μL FaSSGF per well. The mixture was incubation in a thermomixer at 37° C. for 60 min. Sample aliquots were removed (40 μL, from T0 and 60 min.) and quenched with acetonitrile containing 0.5 μM glyburide (IS), and the supernatant collected by centrifugation (2500 rpm, 15 min.). LC-MS was performed using an Agilent MSD (electrospray in positive ionization) equipped with a Kinetic C18 reverse-column. The percent of test compound remaining was calculated using the ratio of the peak area of intact test compound at 60 min. over T0. The percent of psilocin release was calculated by comparing the peak area of psilocin at 60 min, (for test compound) vs. peak area at T0 (2 μM psilocin).

[4] = Compound stability, IP-One incubation; assay type: in vitro ADME; conditions: IP-One stimulation medium on CHO-K1 cells expressing 5-HT2A, 2 μM, 60 min vs T0, 37° C.
Description: IP-One incubation. CHO-K1 cells expressing recombinant Serotonin receptor 5-HT2A (Perkin Elmer, Waltham, MA), were seeded in 96-well plates (˜80,000 cells/well) and treated with 28 μL (per well) of stimulation medium (IP-One HTRF® kit) containing test compounds (2 μM) for 1 hr in a CO2 incubator (5%) at 37° C. The cell-treated medium from 3 wells were pooled together to provide 40 μL for LC-MS analysis. Aliquots for each compound were collected at time zero (To, 100% intact test compound) and 60-min. The incubated medium (40 μL) was quenched with 120 μL of acetonitrile containing 0.5 μM glyburide (IS), and the supernatant was collected by centrifugation (2500 rpm, 15 min.). LC-MS was performed using an Agilent MSD (electrospray in positive ionization) equipped with a Kinetic C18 reverse-column. The percent of test compound remaining is calculated using the ratio of the peak areas of intact test compound at 60 min. over T0. The percent of psilocin release is calculated by comparing the peak area of psilocin at 60 min. (for test compound) vs. peak area at T0 (2 μM psilocin). Results are summarized in Table 1, (rel to % parent detected; and/or % psilocin detected).

human serotonin 5HT2A receptor, sequence (P28223 whole entry): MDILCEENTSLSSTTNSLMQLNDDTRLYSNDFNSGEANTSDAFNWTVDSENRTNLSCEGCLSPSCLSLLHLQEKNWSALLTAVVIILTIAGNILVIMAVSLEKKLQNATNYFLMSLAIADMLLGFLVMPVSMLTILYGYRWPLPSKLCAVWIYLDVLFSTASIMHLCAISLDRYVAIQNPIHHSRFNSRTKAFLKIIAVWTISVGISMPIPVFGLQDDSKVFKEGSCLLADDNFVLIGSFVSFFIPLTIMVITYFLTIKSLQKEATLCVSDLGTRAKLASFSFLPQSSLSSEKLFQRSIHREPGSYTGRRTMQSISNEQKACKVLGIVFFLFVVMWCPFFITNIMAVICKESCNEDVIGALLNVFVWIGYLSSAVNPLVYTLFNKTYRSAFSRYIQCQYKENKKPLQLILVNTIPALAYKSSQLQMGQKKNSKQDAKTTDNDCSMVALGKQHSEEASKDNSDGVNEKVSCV

Compound | Displacement activity relative to psilocin [2] | % parent compound [4] [%] | also measured
CN(C)CCc1c[nH]c2cccc(O)c12 [Psilocin, 4-hydroxy-N,N-dimethyltryptamine] | ++ | 87.4 | mean brain/plasma (B/P) ratio ([1]; 2-h post-dose, with estimated plasma concentration of 5 ng/mL): 11.2±4.3; psilocin in the brain at 8-h post-dose ([1]; 8-h post-dose): No psilocin in the brain was detected; Parent PK [brain] 2 h ([1]; brain, 2 h post-dose, parent compound): 54 ng/mL; Cmax ([1]; male, C57BL6, mouse, plasma, estimated, based on other pharmacokinetic data, read-out: Parent PK Cmax (estimated psilocin plasma concentration)): 5 ng/mL; % parent compound [3]: 72.2%
COC(C)Oc1cccc2[nH]cc(CCN(C)C)c12 (centres unmarked) [Test compound A, 2-(4-(1-methoxyethoxy)-1H-indol-3-yl)-N,N-dimethylethan-1-amine] |  |  | concentration at 2 h ([1]; male, C57BL6, mouse, brain, 2 h post-dose, parent compound, read-out: Parent PK [brain] 2 h): 0.6 ng/mL; AUC ([1]; male, C57BL6, mouse, plasma, parent compound, read-out: Parent PK AUC): 51.4 ng·h/mL; Cmax ([1]; male, C57BL6, mouse, plasma, parent compound, read-out: Parent PK Cmax): 21.6 ng/mL
CCOCOc1cccc2[nH]cc(CCN(C)C)c12 [drawing 86] |  | 91.9 | 
COC(C)Oc1cccc2[nH]cc(CCN(C)C)c12 (centres unmarked) [drawing 87] |  | 88.8 | 
COC(C)n1cc(CCN(C)C)c2c(O)cccc21 (centres unmarked) [drawing 88] |  | 82.5 | 
COCCOCn1cc(CCN(C)C)c2c(OCOC)cccc21 [drawing 89] |  | 94.7 | 
CCOCOc1cccc2[nH]cc(CCN(C)C)c12 [drawing 91] |  |  | % parent compound [3]: 97%
COCCOCn1cc(CCN(C)C)c2c(OCOC)cccc21 [drawing 94] |  |  | % parent compound [3]: 20%
CCOCOc1cccc2[nH]cc(CCN(C)C)c12 [drawing 96] | +++ |  | 
COC(C)Oc1cccc2[nH]cc(CCN(C)C)c12 (centres unmarked) [drawing 97] | ++ |  | 
COC(C)n1cc(CCN(C)C)c2c(O)cccc21 (centres unmarked) [drawing 98] | + |  | 
COCCOCn1cc(CCN(C)C)c2c(OCOC)cccc21 [drawing 99] | + |  | 
